Results published in patent US20080064679A1, “Water Soluble Cannabinoids” (priority 2004, published 2008).
“And” between values parts separate entries of the source, which are not always exact repeats. Identical values can stand only once. Like-named read-outs stand apart in the source and are kept apart here.

Experiments:
human CB1 receptor = target: T1, human CB1 receptor (Homo sapiens, UniProt P21554); assay: [35S]GTPγS binding assay in membranes of CB1 expressing cells; type: biochemical; details: for EC50: mean±SEM; for Emax: maximal GTPγS binding as percentage of stimulation produced by CP 55,940, read-out: CB1 % CP Stim
T1 construct: expressed in transfected cells; b94 says CHO for CB1
Method: (§1) For the in vivo studies, the drugs were dissolved in either saline or emulphor:ethanol:saline (E:E:S) as indicated.
cLogP calculations. Absolute solubility determinations were not performed. Rather, cLogP calculations were performed using the CS ChemDraw Ultra software (Cambridge Soft Corporation, Cambridge, Mass.). Receptor Binding. HEK-293 cells stably expressing the human CB1 receptor were cultured in DMEM with 10% FBS and Chinese Hamster Ovary (CHO) cells stably expressing the human CB2 receptor were cultured in DMEM with 10% FCS. Cells were harvested by replacement of the media with cold phosphate-buffered saline containing 1 mM EDTA followed by centrifugation at 1000×g for 5 min at 4° C. The pellet was resuspended in 50 mM Tris-HCl containing 320 mM sucrose, 2 mM EDTA and 5 mM MgCl2 (pH 7.4) (centrifugation buffer), then centrifuged at 1000×g for 10 min at 4° C., and the resulting supernatant was saved. This process was repeated twice. The supernatant fractions were combined and centrifuged at 40,000×g for 30 min at 4° C. The resulting P2 pellet was resuspended in assay buffer (50 mM Tris-HCl (pH 7.4), 3 mM MgCl2, 0.2 mM EGTA, and 100 mM NaCl) and protein was determined by the method of Bradford ENRfu(Bradford 1976). Membranes were stored at −80° C. until use. […] The assay was incubated at 30° C. for 1 hr and terminated by addition of ice cold 50 mM Tris-HCl plus BSA (1 mg/ml) (pH 7.4) followed by filtration under vacuum through Whatman GF/B glass fiber filters with 3 washes with cold Tris buffer. Bound radioactivity was determined by liquid scintillation spectrophotometry at 50% efficiency after extraction by shaking samples for 30-60 min with Budget-Solve scintillation fluid. Data are reported as the mean±SEM of three experiments, each performed in triplicate. Ki values were calculated from displacement data using EBDA (Equilibrium Binding Data Analysis; BIOSOFT, Milltown, N.J.). [^35S]GTPγS Binding Assays. Concentration-effect curves were generated by incubating membranes (10 μg prepared from CB1 expressing cells as described above) in assay buffer containing BSA (1 mg/ml) with various concentrations of test compounds in the presence of 20 μM GDP and 0.1 nM [^35S]GTPγS in a 1 ml total volume. […] Basal binding was assessed in the absence of agonist, and nonspecific binding was measured in the presence of 10 μM GTPγS. The reaction was incubated for 90 min at 30° C. and terminated by filtration under vacuum through Whatman GF/B glass fiber filters with 3 washes with cold (4° C.) Tris buffer (50 mM Tris-HCl, pH 7.4). Bound radioactivity was determined by liquid scintillation spectrophotometry at 95% efficiency after extraction overnight in ScintiSafe Econo 1 scintillation fluid. Data are reported as mean±SEM of three experiments, each performed in triplicate. Nonlinear regression analysis was conducted by iterative fitting using JMP (SAS for Macintosh). Net-stimulated [^35S]GTPγS binding is defined as [^35S]GTPγS binding in the presence of drug minus basal and percent stimulation is expressed as (net stimulated [^35S]GTPγS binding/basal)×100%. Behavioral Evaluations. All animals were allowed to acclimate to the observation room overnight. Behavioral effects were assessed in the tetrad model in order to measure potency in producing antinociception, catalepsy, hypothermia, and hypomobility. The baselines for tail-flick latency (2-4 seconds) and rectal temperature were determined prior to i.v. injections. Baseline rectal temperatures were measured using a telethermometer and a thermometer probe inserted to 25 mm (Yellow Springs Instrument Co., Yellow Springs, Ohio). The mice were then given either an i.v. i.c.v. injection of the analog. The mice were placed in individual photocell activity chambers 5 min later. Spontaneous activity was monitored for 10 min in a Digiscan Animal Activity Monitor (Omnitech Electronice, Inc., Columbus, Ohio) as measured by the number of interruptions of 16 photocell beams per chamber.

mice [1] = assay: Spontaneous activity (S.A.), mouse tetrad; type: in vivo; details: Mus musculus
mice [2] = assay: Tail-flick antinociception (T.F.), mouse tetrad; type: in vivo; details: for ED50: Mus musculus, mice
mice [3] = assay: Rectal temperature (R.T.), mouse tetrad; type: in vivo; details: Mus musculus
mice [4] = assay: Relative immobility (R.I.), ring-immobility test, mouse tetrad; type: in vivo; details: Mus musculus
[5] = Method: By “water-soluble” we mean that 1 mg of material in 1 ml of water gives a clear solution and is water miscible.
as §1

[6] = iv, vehicle E:E:S (1:1:18), read-out: S.A. ED50 (reducing spontaneous activity)
[7] = iv, i.v., vehicle E:E:S (1:1:18), read-out: T.F. ED50 (antinociception in the tail-flick procedure)
[8] = iv, vehicle E:E:S (1:1:18), read-out: R.T. ED50 (lowering rectal temperature)
[9] = iv, vehicle E:E:S (1:1:18), read-out: R.I. ED50 (relative immobility)
[10] = iv, vehicle saline, read-out: S.A. ED50 (reducing spontaneous activity)
[11] = iv, i.v., vehicle saline, read-out: T.F. ED50 (antinociception in the tail-flick procedure)
[12] = iv, vehicle saline, read-out: R.T. ED50 (lowering rectal temperature)
[13] = iv, vehicle saline, read-out: R.I. ED50 (relative immobility)

T1 sequence (P21554 whole entry): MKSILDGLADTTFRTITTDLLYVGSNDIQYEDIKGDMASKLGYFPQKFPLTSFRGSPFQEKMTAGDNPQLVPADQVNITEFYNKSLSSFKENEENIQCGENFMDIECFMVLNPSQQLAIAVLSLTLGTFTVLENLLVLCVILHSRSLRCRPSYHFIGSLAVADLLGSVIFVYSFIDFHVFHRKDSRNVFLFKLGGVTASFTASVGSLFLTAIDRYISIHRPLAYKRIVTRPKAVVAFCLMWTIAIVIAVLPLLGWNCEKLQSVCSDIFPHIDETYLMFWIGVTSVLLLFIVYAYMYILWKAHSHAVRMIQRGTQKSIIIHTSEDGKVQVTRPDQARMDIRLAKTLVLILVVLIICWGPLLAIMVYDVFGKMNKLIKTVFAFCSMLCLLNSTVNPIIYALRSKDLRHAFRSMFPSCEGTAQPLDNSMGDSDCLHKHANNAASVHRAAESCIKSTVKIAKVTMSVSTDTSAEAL

| SMILES | EC50 (human CB1 receptor; CB1 EC50, [35S]GTPγS binding) | Emax (human CB1 receptor) | ED50 (mice [1]; [6]) | ED50 (mice [2]; [7]) | ED50 (mice [3]; [8]) | ED50 (mice [4]; [9]) | Solubility (water-soluble) [5] | ED50 (mice [1]; [10]) | ED50 (mice [2]; [11]) | ED50 (mice [3]; [12]) | ED50 (mice [4]; [13]) | also measured |
| --- | --- | --- | --- | --- | --- | --- | --- | --- | --- | --- | --- | --- |
| CC1=CC[C@@H]2[C@@H](C1)c1c(O)cc(C(C)(C)CCCCC(=O)NN3CCCCCC3)cc1OC2(C)C [O-2489, N-(Homo-piperidin-1-yl)-carboxamido] | 86.6 ± 17.4 nM | 112 ± 2.32% | 2.07 µmol/kg | 2.53 µmol/kg | 8.5 µmol/kg | 20.5 µmol/kg | No | – | – | – | – | – |
| CNC(=O)CCCCC(C)(C)c1cc(O)c2c(c1)OC(C)(C)[C@@H]1CC=C(C)C[C@@H]21 [O-2490, N-(Methyl)carboxamido] | 64.2 ± 10.6 nM | 92.7 ± 7.81% | 0.49 µmol/kg | 1.37 µmol/kg | > 2.5 µmol/kg | > 2.5 µmol/kg | No | – | – | – | – | – |
| CC1=CC[C@@H]2[C@@H](C1)c1c(O)cc(C(C)(C)CCCCC(=O)NN3CCCC3)cc1OC2(C)C [O-2543, N-(Pyrrolidin-yl)-carboxamido] | 81.1 ± 40 nM | 71.3 ± 4.23% | 0.71 µmol/kg | 0.75 µmol/kg | 8.19 µmol/kg | 25.8 µmol/kg | No | – | – | – | – | – |
| CC1=CC[C@@H]2[C@@H](C1)c1c(O)cc(C(C)(C)CCCCC(=O)NN3CCOCC3)cc1OC2(C)C [O-2544, N-(Morpholin-1-yl)-carboxamido] | 39.7 ± 11.4 nM | 116 ± 3.71% | 0.17 µmol/kg | 0.48 µmol/kg | 0.25 µmol/kg | 0.63 µmol/kg | No | – | – | – | – | Water solubility of the hydrochloride salt [5]: none of the HCl salts was water-soluble |
| CC1=CC[C@@H]2[C@@H](C1)c1c(O)cc(C(C)(C)CCCCn3ccnc3)cc1OC2(C)C [O-2545, Imidazol-1-yl] | 29.3 nM and 4.57 nM | – | 0.01 µmol/kg | 0.07 µmol/kg | 0.04 µmol/kg | 0.13 µmol/kg | – | 0.09 µmol/kg | 0.16 µmol/kg | 0.29 µmol/kg | 0.14 µmol/kg | ED50 (mice [1]; iv, figure legends, i.v., saline, read-out: ED50 after i.v. administration, spontaneous activity): 0.09 µmol/kg; ED50 (mice [2]; iv, figure legends, i.v., saline, read-out: ED50 after i.v. administration, tail-flick response): 0.16 µmol/kg; Analgesia in the tail-flick procedure (mice [2]; oral 10 mg/kg, at two hrs, mean±sem): 85±11%; ED50 (mice [3]; iv, figure legends, i.v., saline, read-out: ED50 after i.v. administration, rectal temperature): 0.29 µmol/kg; ED50 (mice [4]; iv, figure legends, i.v., saline, read-out: ED50 after i.v. administration, relative immobility): 0.14 µmol/kg |
| CC1=CC[C@@H]2[C@@H](C1)c1c(O)cc(C(C)(C)CCCCn3ccnc3C)cc1OC2(C)C [O-2651, 2-Methyl-imidazol-1-y1] | 82.9 ± 45.7 nM | 33.4 ± 3.41% | – | – | – | – | Yes | 1.46 µmol/kg | 1.75 µmol/kg | 3.58 µmol/kg | 4.29 µmol/kg | – |
| CC1=CC[C@@H]2C(C1)c1c(OC(=O)CCCN(C(C)C)C(C)C)cc(C(C)(C)CCCCC(=O)N3CCOCC3)cc1OC2(C)C (stereo partly drawn) [O-2694, Diisopropylaminobutyrate of Δ^8-THC-3-(1,1-dimethyl-6-morpholin-4-yl-6-oxo-hexyl)] | – | 120 ± 8.04% | – | – | – | – | – | – | – | – | – | EC50 (human CB1 receptor; [35S]GTPγS binding, read-out: CB1 EC50): 28.3 ± 3.47 nM; ED50 (mice [1]; Table 4b, vehicle not indicated, read-out: S.A. ED50 (reducing spontaneous activity)): 0.045 µmol/kg; ED50 (mice [2]; Table 4b, vehicle not indicated, read-out: T.F. ED50 (antinociception in the tail-flick procedure)): 0.035 µmol/kg; ED50 (mice [3]; Table 4b, vehicle not indicated, read-out: R.T. ED50 (lowering rectal temperature)): 0.12 µmol/kg; ED50 (mice [4]; Table 4b, vehicle not indicated, read-out: R.I. ED50 (relative immobility)): 0.11 µmol/kg; Solubility (water-soluble) ([5]; 1 mg of analog in 1 ml of water, visual observation): Yes |
| CC1=CC[C@@H]2[C@@H](C1)c1c(O)cc(C(C)(C)CCCCc3ncc[nH]3)cc1OC2(C)C [O-2737, 1H-Imidazol-2-yl] | – | – | > 24.5 µmol/kg | > 24.5 µmol/kg | > 24.5 µmol/kg | > 24.5 µmol/kg | Yes | > 2.2 µmol/kg | > 2.2 µmol/kg | > 2.2 µmol/kg | > 2.2 µmol/kg | – |
